The text below walks through data of patent US11377441B2, “Covalent inhibitors of KRAS” (Araxes Pharma LLC, priority 2017, dated 2022).

For this experiment, the target named is T1, KRAS G12C 1-169, his-tagged protein, GDP-loaded (Homo sapiens, UniProt P01116, G12C).
T1 construct: KRAS G12C 1-169, his-tagged protein, GDP-loaded
As to the kind of experiment: Biochemical assay: covalent modification of KRAS G12C measured by mass spectrometry (RapidFire/TOF or Q-Exactive). It counts as binding. Particulars: covalent binding to (modification of) KRAS G12C after a ten minute incubation period. In short, it runs like this: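 GDP-loaded KRAS G12C 1-169 (his-tagged) at 2 μM or 0.5 μM in 20 mM Hepes, 150 mM NaCl, 1 mM MgCl2, incubated with compound at 100, 30 or 10 μM at room temperature for 10 min, 30 min, 2 h or 24 h, then quenched with formic acid. Intact-protein LC-MS, deconvolved; percent modification from modified versus unmodified protein.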

Molecules are shown by their SMILES.

`C=CC(=O)N1C[C@H](C)N(c2nc(OCCN3CC(F)(F)C3)nc3c(F)c(-c4c(C)ccc5cnn(CC)c45)c(Cl)cc23)C[C@H]1C` [Compound 123, 1-((2R,5S)-4-(6-chloro-2-(2-(3,3-difluoroazetidin-1-yl)ethoxy)-7-(1-ethyl-6-methyl-1H-indazol-7-yl)-8-fluoroquinazolin-4-yl)-2,5-dimethylpiperazin-1-yl)prop-2-en-1-one]: the Binding % result was “+++ (+++ indicates binding activity greater than 80%)”.

On to `C=CC(=O)N1C[C@H](C)N(c2nc(N3CC(N(C)C)C3)nc3c(F)c(-c4c(C)ccc5sncc45)c(Cl)cc23)C[C@H]1C` [Compound 124, 1-((2R,5S)-4-(6-chloro-2-(3-(dimethylamino)azetidin-1-yl)-8-fluoro-7-(5-methylbenzo[d]isothia-zol-4-yl)quinazolin-4-yl)-2,5-dimethylpiperazin-1-yl)prop-2-en-1-one], for which the Binding % result is “++ (++ indicates binding activity from 50 to 80%)”.

Turning to `C=CC(=O)N1C[C@H](C)N(c2nc(N3CC(N(C)C)C3)nc3c(F)c(-c4c(C)ccc5ocnc45)c(Cl)cc23)C[C@H]1C` [Compound 125, 1-((2R,5S)-4-(6-chloro-2-(3-(dimethylamino)azetidin-1-yl)-8-fluoro-7-(5-methylbenzo[d]oxazol-4-yl)quinazolin-4-yl)-2,5-dimethylpiperazin-1-yl)prop-2-en-1-one], the Binding % entry is listed as “++ (++ indicates binding activity from 50 to 80%)”.

Regarding `C=CC(=O)N1C[C@H](C)N(c2nc(N3CC(N)C3)nc3c(F)c(-c4c(C)ccc5[nH]nc(C6CC6)c45)c(Cl)cc23)C[C@H]1C` [Compound 126, 1-((2R,5S)-4-(2-(3-aminoazetidin-1-yl)-6-chloro-7-(3-cyclopropyl-5-methyl-1H-indazol-4-yl)-8-fluoroquinazolin-4-yl)-2,5-dimethylpiperazin-1-yl)prop-2-en-1-one], the Binding % result is given as “+++ (+++ indicates binding activity greater than 80%)”.

For `C=CC(=O)N1C[C@H](C)N(c2nc(N3CC(N(C)C)C3)nc3c(F)c(-c4c(C)ccc5cnn(C(C)C)c45)c(Cl)cc23)C[C@H]1C` [Compound 127, 1-((2R,5S)-4-(6-chloro-2-(3-(dimethylamino)azetidin-1-yl)-8-fluoro-7-(1-isopropyl-6-methyl-1H-indazol-7-yl)quinazolin-4-yl)-2,5-dimethylpiperazin-1-yl)prop-2-en-1-one], the Binding % entry was “++ (++ indicates binding activity from 50 to 80%)”.

Consider `C=CC(=O)N1C[C@H](C)N(c2nc(N3CC(N(C)C)C3)nc3c(F)c(-c4c(C)ccc5cnn(C6CC6)c45)c(Cl)cc23)C[C@H]1C` [Compound 128, 1-((2R,5S)-4-(6-chloro-7-(1-cyclopropyl-6-methyl-1H-indazol-7-yl)-2-(3-(dimethylamino)azetidin-1-yl)-8-fluoroquinazolin-4-yl)-2,5-dimethylpiperazin-1-yl)prop-2-en-1-one], for which the Binding % entry is recorded as “+++ (+++ indicates binding activity greater than 80%)”.

For the compound `C=CC(=O)N1C[C@H](C)N(c2nc(N3CC(NC)C3)nc3c(F)c(-c4c(C)ccc5[nH]nc(C6CC6)c45)c(Cl)cc23)C[C@H]1C` [Compound 129, 1-((2R,5S)-4-(6-chloro-7-(3-cyclopropyl-5-methyl-1H-indazol-4-yl)-8-fluoro-2-(3-(methylamino)azetidin-1-yl)quinazolin-4-yl)-2,5-dimethylpiperazin-1-yl)prop-2-en-1-one], the Binding % result was “+++ (+++ indicates binding activity greater than 80%)”.

Consider `C=CC(=O)N1C[C@H](C)N(c2nc(N3CC(N(C)C)C3)nc3c(F)c(-c4cccc5occc45)c(Cl)cc23)C[C@H]1C` [Compound 130, 1-((2R,5S)-4-(7-(benzofuran-4-yl)-6-chloro-2-(3-(dimethylamino)azetidin-1-yl)-8-fluoroquinazolin-4-yl)-2,5-dimethylpiperazin-1-yl)prop-2-en-1-one], for which the Binding % entry was “++ (++ indicates binding activity from 50 to 80%)”.

Consider `C=CC(=O)N1C[C@H](C)N(c2nc(N3CC(N(C)C)C3)nc3c(F)c(-c4c(C)ccc5ncn(C)c45)c(Cl)cc23)C[C@H]1C` [Compound 132, 1-((2R,5S)-4-(6-chloro-7-(1,6-dimethyl-1H-benzo[d]imidazol-7-yl)-2-(3-(dimethylamino)azetidin-1-yl)-8-fluoroquinazolin-4-yl)-2,5-dimethylpiperazin-1-yl)prop-2-en-1-one], for which the Binding % result was “+ (+ indicates binding activity greater than 0% and up to 50%)”.

Consider `C=CC(=O)N1C[C@H](C)N(c2nc(N3CC(N(C)C)C3)nc3c(F)c(-c4cccc5ccn(C)c45)c(Cl)cc23)C[C@H]1C` [Compound 138, 1-((2R,5S)-4-(6-chloro-2-(3-(dimethylamino)azetidin-1-yl)-8-fluoro-7-(1-methyl-1H-indol-7-yl)quinazolin-4-yl)-2,5-dimethylpiperazin-1-yl)prop-2-en-1-one], for which the Binding % result was “+++ (+++ indicates binding activity greater than 80%)”.

`C=CC(=O)N1C[C@H](C)N(c2nc(N3CC(NC)C3)nc3c(F)c(-c4c(C)ccc5[nH]nc(C)c45)c(Cl)cc23)C[C@H]1C` [Compound 140, 1-((2R,5S)-4-(6-chloro-7-(3,5-dimethyl-1H-indazol-4-yl)-8-fluoro-2-(3-(methylamino)azetidin-1-yl)quinazolin-4-yl)-2,5-dimethylpiperazin-1-yl)prop-2-en-1-one]: the Binding % result is listed as “+++ (+++ indicates binding activity greater than 80%)”.

In the case of `C=CC(=O)N1C[C@H](C)N(c2nc(N3CC(N(C)C)C3)nc3c(F)c(-c4c(F)ccc5cnn(C)c45)c(Cl)cc23)C[C@H]1C` [Compound 145, 1-((2R,5S)-4-(6-chloro-2-(3-(dimethylamino)azetidin-1-yl)-8-fluoro-7-(6-fluoro-1-methyl-1H-indazol-7-yl)quinazolin-4-yl)-2,5-dimethylpiperazin-1-yl)prop-2-en-1-one], the Binding % entry was “+++ (+++ indicates binding activity greater than 80%)”.

Regarding `C=CC(=O)N1C[C@H](C)N(c2nc(N3CC(NC)C3)nc3c(F)c(-c4c(C)ccc5cnn(C6CC6)c45)c(Cl)cc23)C[C@H]1C` [Compound 148, 1-((2R,5S)-4-(6-chloro-7-(1-cyclopropyl-6-methyl-1H-indazol-7-yl)-8-fluoro-2-(3-(methylamino)azetidin-1-yl)quinazolin-4-yl)-2,5-dimethylpiperazin-1-yl)prop-2-en-1-one], the Binding % result is recorded as “+++ (+++ indicates binding activity greater than 80%)”.

As for `C=CC(=O)N1C[C@H](C)N(c2nc(N3CC(N(C)C)C3)nc3c(F)c(-c4cccc5snc(C)c45)c(Cl)cc23)C[C@H]1C` [Compound 157, 1-((2R,5S)-4-(6-chloro-2-(3-(dimethylamino)azetidin-1-yl)-8-fluoro-7-(3-methylbenzo[d]isothia-zol-4-yl)quinazolin-4-yl)-2,5-dimethylpiperazin-1-yl)prop-2-en-1-one], the Binding % entry is on record as “+++ (+++ indicates binding activity greater than 80%)”.

Turning to `C=CC(=O)N1C[C@H](C)N(c2nc(N3CC(N(C)C)C3)nc3c(F)c(-c4cccc5c(Cl)n[nH]c45)c(Cl)cc23)C[C@H]1C` [Compound 158, 1-((2R,5S)-4-(6-chloro-7-(3-chloro-1H-indazol-7-yl)-2-(3-(dimethylamino)azetidin-1-yl)-8-fluoroquinazolin-4-yl)-2,5-dimethylpiperazin-1-yl)prop-2-en-1-one], the Binding % entry is recorded as “++ (++ indicates binding activity from 50 to 80%)”.

With `C=CC(=O)N1C[C@H](C)N(c2nc(N3CC(N(C)C)C3)nc3c(F)c(-c4c(C(C)C)ccc5[nH]ncc45)c(Cl)cc23)C[C@H]1C` [Compound 159, 1-((2R,5S)-4-(6-chloro-2-(3-(dimethylamino)azetidin-1-yl)-8-fluoro-7-(5-isopropyl-1H-indazol-4-yl)quinazolin-4-yl)-2,5-dimethylpiperazin-1-yl)prop-2-en-1-one], the Binding % entry is “+ (+ indicates binding activity greater than 0% and up to 50%)”.

Regarding `C=CC(=O)N1C[C@H](C)N(c2nc(OC[C@H]3CCCN3C)nc3c(F)c(-c4c(C)ccc5[nH]nc(C6CC6)c45)c(Cl)cc23)C[C@H]1C` [Compound 160, 1-((2R,5S)-4-(6-chloro-7-(3-cyclopropyl-5-methyl-1H-indazol-4-yl)-8-fluoro-2-(((R)-1-methylpyrrolidin-2-yl)methoxy)quinazolin-4-yl)-2,5-dimethylpiperazin-1-yl)prop-2-en-1-one], the Binding % entry was “+++ (+++ indicates binding activity greater than 80%)”.

For `C=CC(=O)N1C[C@H](C)N(c2nc(OC[C@H]3CCCN3C)nc3c(F)c(-c4c(C)ccc5[nH]nc(C)c45)c(Cl)cc23)C[C@H]1C` [Compound 161, 1-((2R,5S)-4-(6-chloro-7-(3,5-dimethyl-1H-indazol-4-yl)-8-fluoro-2-(((R)-1-methylpyrrolidin-2-yl)methoxy)quinazolin-4-yl)-2,5-dimethylpiperazin-1-yl)prop-2-en-1-one], the Binding % entry is on record as “+++ (+++ indicates binding activity greater than 80%)”.

For `C=CC(=O)N1C[C@H](C)N(c2nc(OC[C@@H]3CCCN3C)nc3c(F)c(-c4c(C)ccc5[nH]nc(C)c45)c(Cl)cc23)C[C@H]1C` [Compound 162, 1-((2R,5S)-4-(6-chloro-7-(3,5-dimethyl-1H-indazol-4-yl)-8-fluoro-2-(((S)-1-methylpyrrolidin-2-yl)methoxy)quinazolin-4-yl)-2,5-dimethylpiperazin-1-yl)prop-2-en-1-one], the Binding % entry was “+++ (+++ indicates binding activity greater than 80%)”.

In the case of `C=CC(=O)N1C[C@H](C)N(c2nc(OCCN3CCC(F)CC3)nc3c(F)c(-c4c(C)ccc5[nH]nc(C)c45)c(Cl)cc23)C[C@H]1C` [Compound 163, 1-((2R,5S)-4-((S)-6-chloro-7-(3,5-dimethyl-1H-indazol-4-yl)-8-fluoro-2-(2-(4-fluoropiperidin-1-yl)ethoxy)quinazolin-4-yl)-2,5-dimethylpiperazin-1-yl)prop-2-en-1-one], the Binding % result is “+ (+ indicates binding activity greater than 0% and up to 50%)”.
